From patent EP4603105A1, “PHARMACEUTICAL COMPOSITION CONTAINING CYCLIC COMPOUND HAVING SELECTIVE KRAS INHIBITORY EFFECT AGAINST HRAS AND NRAS” (CHUGAI SEIYAKU KABUSHIKI KAISHA, priority 2022, dated 2024)

How the values were obtained:
[1] = target: GDP-bound NRAS wild-type protein (Homo sapiens, UniProt P01111); experiment: Binding to NRAS by surface plasmon resonance (SPR), KD and KD ratio to KRAS; settings: ratio of KD for GDP-bound NRAS wild-type protein to KD for KRAS
In short: (§1)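 Running buffer contained 10 µM GDP and 10 mM MgCl2 to keep RAS in the GDP state, with 4% DMSO at pH 7.4. Compounds were flowed at 100 µL/min in 75 s steps of rising concentration over captured biotin-Avi RAS at 30°C. Sensorgrams were fitted 1:1 for KD.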

[2] = tested on: human lung cancer strain NCI-H441; format: cell-based
In short: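 Step one: dispense the test compound in serial DMSO dilutions. Step three: add the reagent and measure […].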

HRAS wild-type protein = HRAS wild-type protein (Homo sapiens, UniProt P01112); experiment: Binding to HRAS by surface plasmon resonance (SPR), KD and KD ratio to KRAS; settings: ratio of KD for HRAS wild-type protein to KD for KRAS
HRAS wild-type protein, sequence (P01112 whole entry): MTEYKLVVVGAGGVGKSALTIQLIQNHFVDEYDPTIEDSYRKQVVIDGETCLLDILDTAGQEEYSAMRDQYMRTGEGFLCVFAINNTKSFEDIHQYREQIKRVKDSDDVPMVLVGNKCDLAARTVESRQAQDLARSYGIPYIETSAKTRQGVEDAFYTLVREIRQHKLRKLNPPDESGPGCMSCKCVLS
In short: as §1

GDP-bound NRAS wild-type protein, sequence (P01111 whole entry): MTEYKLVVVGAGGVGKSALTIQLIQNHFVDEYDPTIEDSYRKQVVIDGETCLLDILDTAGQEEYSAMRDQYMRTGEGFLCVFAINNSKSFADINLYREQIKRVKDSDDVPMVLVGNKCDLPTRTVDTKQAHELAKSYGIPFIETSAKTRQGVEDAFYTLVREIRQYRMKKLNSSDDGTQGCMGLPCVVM

SMILES | NRAS /KRAS [1] | IC50 [2] | HRAS /KRAS (HRAS wild-type protein)
CCC[C@H]1C(=O)N[C@@H]([C@@H](C)CC)C(=O)N(C)CC(=O)N(C)[C@H]2C/C=C\CCN(C2=O)[C@@H](Cc2ccc(C(F)(F)F)cc2)C(=O)N(C)CC(=O)N[C@@H](CCc2ccc3ccn(C)c3c2)C(=O)N2C[C@H](OCC)C[C@H]2C(=O)NC2(CC(C)(C)C2)C(=O)N(C)[C@@H](C(CC)CC)C(=O)N(C)[C@H](C(=O)N(C)C)CC(=O)N1C [PP2912] | AA (a compound having 20 or more is denoted as AA) | 86 nM | A (a compound having 10 or more and less than 20 is denoted as A)
CCCN(C)C(=O)[C@@H]1CC(=O)N(C)[C@@H](CC)C(=O)N[C@@H]([C@@H](C)CC)C(=O)N(C)CC(=O)N(C)[C@H]2C/C=C\CCN(C2=O)[C@@H](Cc2ccc(C(F)(F)F)cc2)C(=O)N(C)CC(=O)N[C@@H](CCc2cc(F)c(C(F)(F)F)c(F)c2)C(=O)N2C[C@H](OCC3CC3)C[C@H]2C(=O)NC2(CCC2)C(=O)N(C)[C@@H](C2CCCC2)C(=O)N1C [PP2913] | A (a compound having 10 or more and less than 20 is denoted as A) | 10.3 nM | A (a compound having 10 or more and less than 20 is denoted as A)
CCCN(C)C(=O)[C@@H]1CC(=O)N(C)[C@@H](CC)C(=O)N[C@@H]([C@@H](C)CC)C(=O)N(C)CC(=O)N(C)[C@H]2C/C=C\CCN(C2=O)[C@@H](Cc2ccc(C(F)(F)F)cc2)C(=O)N(C)CC(=O)N[C@@H](CCc2cc(F)c(C(F)(F)F)c(F)c2)C(=O)N2CC[C@H]2C(=O)NC2(CCC2)C(=O)N(C)[C@@H](C2CCCC2)C(=O)N1C [PP2915] | A (a compound having 10 or more and less than 20 is denoted as A) | 129 nM | A (a compound having 10 or more and less than 20 is denoted as A)
CCC(CC)[C@H]1C(=O)N(C)[C@H](C(=O)N(C)C)CC(=O)N(C)[C@@H](COC)C(=O)N[C@@H]([C@@H](C)CC)C(=O)N(C)CC(=O)N(C)[C@H]2C/C=C\CCN(C2=O)[C@@H](Cc2ccc(C(F)(F)F)cc2)C(=O)N(C)CC(=O)N[C@@H](CCc2cc(F)c(C(F)(F)F)c(F)c2)C(=O)N2CCCC[C@H]2C(=O)NC2(CC(C)(C)C2)C(=O)N1C [PP2916] | A (a compound having 10 or more and less than 20 is denoted as A) | 106 nM | A (a compound having 10 or more and less than 20 is denoted as A)
CCC(CC)[C@H]1C(=O)N(C)[C@H](C(=O)N(C)C)CC(=O)N(C)[C@@H](COC)C(=O)N[C@@H]([C@@H](C)CC)C(=O)N(C)CC(=O)N(C)[C@H]2C/C=C\CCN(C2=O)[C@@H](Cc2ccc(C(F)(F)F)cc2)C(=O)N(C)CC(=O)N[C@@H](CCc2cc(F)c(C(F)(F)F)c(F)c2)C(=O)N2CCOC[C@H]2C(=O)NC2(CC(C)(C)C2)C(=O)N1C [PP2917] | AA (a compound having 20 or more is denoted as AA) | 130 nM | A (a compound having 10 or more and less than 20 is denoted as A)
CCC(CC)[C@H]1C(=O)N(C)[C@H](C(=O)N(C)C)CC(=O)N(C)[C@@H](COC)C(=O)N[C@@H]([C@@H](C)CC)C(=O)N(C)CC(=O)N(C)[C@H]2C/C=C\CCN(C2=O)[C@@H](Cc2ccc(C(F)(F)F)cc2)C(=O)N(C)CC(=O)N[C@@H](CCc2cc(F)c(C(F)(F)F)c(F)c2)C(=O)N2CC[C@H]2C(=O)NC2(CC(C)(C)C2)C(=O)N1C [PP2918] | AA (a compound having 20 or more is denoted as AA) | 126 nM | A (a compound having 10 or more and less than 20 is denoted as A)
